# Assay results taken from patent publication US12590296B2, “Method of culturing immortalized human hepatic progenitors or cells” (INSERM (INSTITUT NATIONAL DE LA SANTÉ ET DE LA RECHERCHE …, priority 2019, dated 2026).
# Entries after “also recorded” stand apart in the source; their conditions may differ.
# Key:
# [1] = format: physicochemical
# Experimental: The physical properties of different methacrylated gelatin matrices (GelMa matrices) were analyzed by assessing the polymerization and bioprinting properties of the matrices as a function of the GelMa concentration, the photoinitiator LAP concentration and the illumination time at 405 nm (FIG. 1). As shown on FIG. 1A, at 20° C. a concentration of GelMa of 2.5% was not sufficient to ensure a proper polymerization of the matrix and subsequently, an optimal viscosity for the bioprinting process. As shown on FIG. 1B, a minimum concentration of LAP (i.e., 0.1% (w/v)) and an optimized illumination time (i.e., 60 seconds) were defined to reduce the phototoxicity and the production of excess free radicals while maintaining sufficient structural integrity of the printed GelMa for 28 days at 37° C. As shown on FIGS. 1C-D, weight loss of the matrices was assessed as a function of the photoinitiator LAP concentration (either 0.1% (w/v) on FIG. 1C or 0.3% (w/v) on FIG. 1D) and the illumination time at 405 nm. A rapid decrease of the matrix weight, of up to about 40%, was observed 5 hours after the polymerization process (FIG. 1C-D). Then, a constant weight for at least 28 days was observed, indicating a good stability of the matrix in the culture medium at 37° C. (FIGS. 1C-D). […]
# HuH-7 cells [2] = format: cell-based, human
# Experimental: (§1) Cell viability was assessed by using the WST-1 (water soluble tetrazolium-1) proliferation assay on cell laden 3D constructs at different days or times of culture. Briefly, the cell laden 3D constructs were treated with 100 μL of WST-1 reagent and incubated 30 min at 37° C. Absorbance at 440 nm was read in a microplate reader (SpectrostarNano, BMG labtech, Champigny s/Marne, FR) and the values were converted into percentage of absorbance by comparison with controls assessed at day 0 or time 0. Measurement of lactate dehydrogenase (LDH) was performed on supernatants with the LDH-Glo™ Cytotoxicity Assay (Promega) by following manufacturer's instructions.
# LX-2 cells [3] = test: mRNA expression (RT-qPCR) in LX-2 cells in 3D GelMa culture; format: cell-based, human; conditions: 5 ng/mL every 48 h from day 2
# Experimental: After 1, 2 and 4 week(s) of culture, 3D constructs comprising 3D cell structures were harvested, washed twice in PBS and total ribonucleic acid (RNA) was extracted using TRIzol™ reagent. The concentration of total RNA was measured with a NanoDrop ND-1000 (NanoDrop Technologies). Complementary deoxyribonucleic acid (cDNA) was synthetized using the High Capacity cDNA reverse transcriptase kit (Applied Biosystems Foster City, CA, USA), and real-time polymerase chain reaction (PCR) was performed using the Power SYBR Green PCR master mix (Applied Biosystems Foster City, CA, USA). […] The expression levels of the target genes were normalized to those of GAPDH and determined by the ΔΔCt method. Final results were expressed as the n-fold difference in target gene expression in samples when compared with the mean expression values of the target gene for controls: either non-differentiated HepaRG (referred to as 2D) or HepaRG differentiated in standard 2D culture conditions (referred to as 2D DMSO). […]
# First, the culture of LX-2 cells alone in 3D GelMa culture was assessed, with or without treatment with TGFβ-1, a classical pro-fibrotic cytokine (Czaja et al., J Cell Biol. 1989 June; 108(6):2477-82). […] Then, the mRNA expression of ACTA2, ADAMTS12, LPL, COL1A1, MMP2, TGFβ-1 and TIMP1 was assessed in LX-2 cells in 3D GelMa culture, stimulated or not by TGFβ-1 (FIGS. 14A-G, respectively). […]
# LX-2 cells [4] = test: SHG microscopy of fibrillar collagen, LX-2 cells alone in 3D GelMa; format: cell-based, human; conditions: LX-2 cells cultured alone in 3D GelMa, after induction
# Experimental: (§2) TPEF/SHG microscopy imaging was performed on mRIC facility of Biosit, University of Rennes1 (France). The SHG imaging system is composed of a confocal TCS SP5 scanning head (Leica Microsystems, Mannheim, Germany) mounted on a DMIRE2 inverted microscope (Leica Microsystems) and equipped with a MAITAI femtosecond laser (Spectra Physics, Santa Clara, CA). 60× water immersion objective (Olympus LUMFL 60 W×1.1NA) was used for applying an 820 nm excitation to the sample. The SHG signal was collected in the forward direction using the condenser (S1, NA ¼ 0.9-1.4; Leica Microsystems), and the TPEF was epi-collected in the backward direction. IRSP 715 bandpass and 410 nm infrared (IR) filters (10 nm full width at half-maximum, FWHM) were placed before the photomultiplier tube. The image processing was performed with ImageJ software (National Institutes of Health).
# (§3) SHG microscopy was used to visualize fibrillar collagen, mostly collagen-1 and -3. Briefly, SHG relies on the nonlinear optical interactions with […] fibrillar structures, such as collagen type I, allowing their detection and quantification in 3D tissues. […] For example, such culture is not suitable for the study of liver fibrosis.
# HepaRG cells [5] = test: SHG microscopy of fibrillar collagen, HepaRG cells alone in 3D GelMa; format: cell-based, human; conditions: HepaRG cells cultured alone in 3D GelMa, with or without treatment
# Experimental: as §2, §3
# [6] = tested on: HepaRG cells in coculture with LX-2 cells and HUVECs (CoC); test: mRNA expression (RT-qPCR) in HepaRG + LX-2 + HUVECs coculture (CoC) in 3D GelMa; format: cell-based, human
# Experimental: After 1, 2 and 4 week(s) of culture, 3D constructs comprising 3D cell structures were harvested, washed twice in PBS and total ribonucleic acid (RNA) was extracted using TRIzol™ reagent. The concentration of total RNA was measured with a NanoDrop ND-1000 (NanoDrop Technologies). Complementary deoxyribonucleic acid (cDNA) was synthetized using the High Capacity cDNA reverse transcriptase kit (Applied Biosystems Foster City, CA, USA), and real-time polymerase chain reaction (PCR) was performed using the Power SYBR Green PCR master mix (Applied Biosystems Foster City, CA, USA). Basic local alignment search tool (BLAST) was used to design primer sequences which were purchased from Eurogentec (Searing, BE). The expression levels of the target genes were normalized to those of GAPDH and determined by the ΔΔCt method. Final results were expressed as the n-fold difference in target gene expression in samples when compared with the mean expression values of the target gene for controls: either non-differentiated HepaRG (referred to as 2D) or HepaRG differentiated in standard 2D culture conditions (referred to as 2D DMSO). All results are presented as mean±SD of at least n=3 experiments.
# (§4) For coculture constructs, the bioprinted 3D structure comprising HepaRG cells and LX-2 cells was cultured during a week, before being put in a low attachment plate containing 1×10^6 HUVECs per mL of medium.
# The mRNA expression of hepatic genes (ALB, ALDOB, PPARA and SERPINA1) and of myofibroblastic transition genes and extracellular matrix remodeling genes (ACTA2, ADAMTS12, COL1A1, COL3A1, MMP2, MMP9 and TIMP1) was assessed at day 21 (i) in HepaRG alone in 3D GelMa culture, (ii) in HepaRG in 3D GelMa culture with LX-2 cells and HUVECs (CoC) and (iii) in HepaRG in 3D GelMa culture with LX-2 cells and HUVECs (CoC) activated with TGFβ-1 treatment for 7 days (FIGS. 16A-K). […] The albumin secretion of the HepaRG cells in coculture with the LX-2 cells and HUVECs (CoC) was also assessed and compared to that of HepaRG cells cultured alone (HepaRG) and bioprinted in GelMa matrix under the same conditions.
# [7] = tested on: HepaRG cells in coculture with LX-2 cells and HUVECs (CoC); test: Albumin, urea and pro-collagen 1a1 secretion in coculture (CoC); format: cell-based, human
# Experimental: (§5) Medium samples were taken for the determination of albumin and urea content every 48 h. Secreted albumin and proCol1a1 (pro-collagen 1 alpha 1) were quantified using the human serum albumin Duoset Enzyme Linked Immunosorbent Assay (ELISA) kit (R&D systems, Minneapolis, MN, USA) and the human pro-Col1a1 Duoset Enzyme Linked Immunosorbent Assay kits (R&D systems, Minneapolis, MN, USA), according to manufacturer's instructions. Quantification was performed by measuring absorbance at 450 nm using a microplate reader (SpectrostarNano, BMG labtech, Champigny s/Marne, FR). Urea secretion in the medium was measured using a ChromaDazzle Urea Assay kit (AssayGenie, Dublin, IR) according to the manufacturer's protocol, using medium as standard and reading the absorbance at 420 nm (SpectrostarNano, BMG labtech, Champigny s/Marne, FR)
# as §4
# [8] = tested on: HepaRG cells in coculture with LX-2 cells and HUVECs (CoC); test: LDH release in coculture (CoC); format: cell-based; conditions: 5 ng/mL every 48 h for 7 days
# Experimental: as §1
# HepaRG or HepaRG+HUVECs = test: Pro-collagen 1a1 secretion (ELISA) in HepaRG or HepaRG+HUVECs; format: cell-based, human; conditions: day 21
# Experimental: as §5
# HuH-7 cells [9] = test: Cleaved caspase 3 (apoptosis) in HuH-7 cells in 3D GelMa culture; format: cell-based, human; conditions: treatment at day 14, data not shown
# Experimental: Cell laden 3D constructs were fixed in 4% formaldehyde, washed 3 times in PBS and stored at 4° C. until use or immediately suspended in a 0.12 M phosphate buffer containing 10% w/v saccharose and incubated overnight. They were embedded in a protective matrix composed of gelatin 7.5% w/v and 10% w/v saccharose, then frozen in isopentane and cryosectioned at a thickness of 7 μm. Slides were stained on the Discovery Automated IHC stainer using the discovery Rhodamin kit (Ventana Mediacl systems, Tucson, AZ, USA). The concentrations and references of the primary antibodies that were used can be found in Table 1 below. After rinsing, signal enhancement was performed using the Ventana Rhodamin kit and secondary antibody anti-rabbit HRP (760-4311, Roche) or secondary antibody anti-mouse HRP (760-4310, Roche) for 16 min of incubation. After removal from the instrument, slides were manually rinsed, stained when required with albumin antibody then a secondary antibody for albumin detection (Donkey anti goat 488), and mounted with Dapi Fluoromount-G.
# HepaRG cells [10] = conditions: HepaRG cells in 3D GelMa culture, in the presence of U126 (16.4% in its absence); data not shown
# [11] = CoC, day 21, 5 ng/mL every 48 h for 7 days
molecule,measurement,setting,value
methacrylated gelatin [GelMa],constant weight (stability of the matrix in the culture medium),[1],at least 28 days
same,HuH-7 cell viability (WST-1 proliferation assay),HuH-7 cells [2],no decrease
TGFβ-1: a classical pro-fibrotic cytokine,"mRNA expression of ACTA2, COL1A1, MMP2 and TIMP1",LX-2 cells [3],clearly increased in a time-dependent manner
same,collagen fibrils (SHG microscopy),LX-2 cells [4],Very few collagen fibrils or no collagen fibrils at all; also recorded: no collagen fibrils were ever observed
same,collagen deposition (SHG microscopy),HepaRG cells [5],No collagen deposition
same,"expression of genes involved in ECM homeostasis (ACTA2, ADAMTS12, COL1A1, COL3A1, MMP2, MMP9 and TIMP1)",[6]; [11],increase
same,"hepatic gene mRNA expression (ALB, ALDOB, PPARA and SERPINA1)",[6]; [11],decrease
same,COL1A1 expression,"[6]; HepaRG alone, HepaRG+HUVECs and CoC (all three conditions)",significant increase
same,albumin secretion,"[7]; CoC, 5 ng/mL every 48 h for 7 days",decrease
same,urea secretion,"[7]; CoC, over the 21 days of culture, with or without treatment, data not shown",remained stable
same,pro-collagen 1a1 secretion,"[7]; HepaRG+LX-2+HUVECs (CoC), day 21",no significant increase
same,release of LDH (a cell death marker) in the medium,[8],no specific release
same,pro-collagen 1a1 secretion,HepaRG or HepaRG+HUVECs,significatively induces its secretion
N.N.[Cl][Pt][Cl] [cisplatin],response of the cells to an apoptotic inducer (caspase 3),HuH-7 cells [9],responded well
N#CC(=C(/N)Sc1ccccc1N)/C(C#N)=C(/N)Sc1ccccc1N [U126],EdU positive cells,HepaRG cells [10],0.9%
